Experimental data published in PubChem BioAssay AID330 (DTP/NCI, 2004).
Several values for one entry are separate records, joined by “and”; a condition that tells them apart may be missing. Equal entries are not always repeated. Toxic doses and inconclusive results are not listed. Rule for the calls: active = survival T/C of 150% or more; inactive = T/C below 125% in these data.

Test system: P388 leukemia ip, CD2F1 mice, survival T/C
Test: NCI In Vivo Anticancer Drug Screen. Data for tumor model P388 Leukemia (intraperitoneal) in CD2F1 (CDF1) mice
Details: endpoint: median survival time, higher = longer survival
Method in brief: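 Mice carrying the transplanted tumor received test compound or vehicle. Survival was recorded in each group, and the value is the treated-group measurement divided by that of the vehicle-treated control group.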

[1] = dose: 60.0 mg/kg/injection, schedule: Q01DX005 (ip), vehicle: saline with Tween-80
[2] = dose: 60.0 mg/kg/injection, schedule: Q01DX005 (ip), vehicle: Klucel (hydroxypropylcellulose) (HPC)
[3] = dose: 120.0 mg/kg/injection, schedule: Q01DX005 (ip), vehicle: Klucel (hydroxypropylcellulose) (HPC)
[4] = dose: 240.0 mg/kg/injection, schedule: Q01DX005 (ip), vehicle: Klucel (hydroxypropylcellulose) (HPC)
[5] = dose: 50.0 mg/kg/injection, schedule: Q01DX005 (ip), vehicle: Klucel (hydroxypropylcellulose) (HPC)
[6] = dose: 100.0 mg/kg/injection, schedule: Q01DX005 (ip), vehicle: Klucel (hydroxypropylcellulose) (HPC)
[7] = dose: 200.0 mg/kg/injection, schedule: Q01DX005 (ip), vehicle: Klucel (hydroxypropylcellulose) (HPC)
[8] = dose: 120.0 mg/kg/injection, schedule: Q01DX005 (ip), vehicle: saline with Tween-80
[9] = dose: 240.0 mg/kg/injection, schedule: Q01DX005 (ip), vehicle: saline with Tween-80
[10] = dose: 50.0 mg/kg/injection, schedule: Q01DX009 (ip), vehicle: saline with Tween-80
[11] = dose: 100.0 mg/kg/injection, schedule: Q01DX009 (ip), vehicle: saline with Tween-80
[12] = dose: 200.0 mg/kg/injection, schedule: Q01DX009 (ip), vehicle: saline with Tween-80

Measured: T/C

CC(C)(C)[OH+][O-].[O-]c1ccc(Cl)cc1C=Nc1ccc(Cl)cc1[O-].[O]=[V]
inactive: dose: 15.0 mg/kg/injection, schedule: Q01DX005 (ip), vehicle: saline with Tween-80 100 % of control | dose: 30.0 mg/kg/injection, schedule: Q01DX005 (ip), vehicle: saline with Tween-80 100 % of control | [1] 101 % of control and 93 % of control

CC(=O)CC(=O)N/N=C(N)/C(C#N)=N/N(C)c1ccccc1
inactive: dose: 100.0 mg/kg/injection, schedule: Q04DX002 (ip), vehicle: saline with Tween-80 97 % of control | dose: 200.0 mg/kg/injection, schedule: Q04DX002 (ip), vehicle: saline with Tween-80 94 % of control | dose: 400.0 mg/kg/injection, schedule: Q04DX002 (ip), vehicle: saline with Tween-80 96 % of control

CCCCCCNP(=O)(N1CC1)N1CC1
inactive: dose: 3.13 mg/kg/injection, schedule: Q04DX003 (ip), vehicle: saline 104 % of control
active: dose: 10.0 mg/kg/injection, schedule: Q01DX009 (ip), vehicle: saline 177 % of control | dose: 12.5 mg/kg/injection, schedule: Q04DX003 (ip), vehicle: saline with Tween-80 159 % of control | dose: 20.0 mg/kg/injection, schedule: Q01DX009 (ip), vehicle: saline 227 % of control | dose: 25.0 mg/kg/injection, schedule: Q04DX003 (ip), vehicle: saline with Tween-80 218 % of control

O=C1NCC(COc2ccc([N+](=O)[O-])cc2)O1 (stereo not given)
inactive: [2] 109 % of control | [3] 90 % of control | [4] 93 % of control

Cc1cccc([B-]23OCC[N+]2(CNC(=O)C2=C(O)C4(O)C(=O)C5=C(O)c6c(O)cccc6C(C)(O)C5CC4C(N(C)C)C2=O)CCO3)c1 (stereo not given)
inactive: [5] 97 % of control | [6] 111 % of control | [7] 118 % of control

O=c1[nH]cnc2c1ncn2C1SC(CO)C(O)C1O (stereo not given)
inactive: dose: 25.0 mg/kg/injection, schedule: Q01DX005 (ip), vehicle: Klucel (hydroxypropylcellulose) (HPC) 100 % of control | [5] 108 % of control | [6] 101 % of control | [7] 101 % of control | dose: 400.0 mg/kg/injection, schedule: Q01DX005 (ip), vehicle: Klucel (hydroxypropylcellulose) (HPC) 92 % of control

Cc1cc(NS(=O)(=O)c2ccc(NCc3c4ccccc4nc4cc(Cl)ccc34)cc2)no1
inactive: [1] 94 % of control | [8] 94 % of control | [9] 94 % of control

CC1(OC(=O)c2ccccc2)CC(C)(C)[N+]([O-])=N1 (stereo not given)
inactive: dose: 12.5 mg/kg/injection, schedule: Q01DX005 (ip), vehicle: other 97 % of control | dose: 25.0 mg/kg/injection, schedule: Q01DX005 (ip), vehicle: other 98 % of control | dose: 50.0 mg/kg/injection, schedule: Q01DX005 (ip), vehicle: other 100 % of control | dose: 100.0 mg/kg/injection, schedule: Q01DX005 (ip), vehicle: other 90 % of control | dose: 200.0 mg/kg/injection, schedule: Q01DX005 (ip), vehicle: other 93 % of control

C=C(C)C1CC2=C(C(=O)OC)C=C(O2)C(C(=C)C)C2OC(=O)/C(=C\C1O)C2OC (stereo not given)
inactive: dose: 11.88 mg/kg/injection, schedule: Q01DX005 (ip), vehicle: saline + alcohol 99 % of control | dose: 23.75 mg/kg/injection, schedule: Q01DX005 (ip), vehicle: saline + alcohol 96 % of control | dose: 47.5 mg/kg/injection, schedule: Q01DX005 (ip), vehicle: saline + alcohol 101 % of control | dose: 95.0 mg/kg/injection, schedule: Q01DX005 (ip), vehicle: saline + alcohol 108 % of control | dose: 190.0 mg/kg/injection, schedule: Q01DX005 (ip), vehicle: saline + alcohol 99 % of control

c1ccc2c(CCc3c4ccccc4nc4ccccc34)c3ccccc3nc2c1
inactive: dose: 100.0 mg/kg/injection, schedule: Q01DX001 (ip), vehicle: Klucel (hydroxypropylcellulose) (HPC) 102 % of control | dose: 200.0 mg/kg/injection, schedule: Q01DX001 (ip), vehicle: Klucel (hydroxypropylcellulose) (HPC) 105 % of control | dose: 400.0 mg/kg/injection, schedule: Q01DX001 (ip), vehicle: Klucel (hydroxypropylcellulose) (HPC) 105 % of control

O=C(O)C(Cc1ccc(O)cc1)NSc1ccccc1[N+](=O)[O-] (stereo not given)
inactive: dose: 25.0 mg/kg/injection, schedule: Q01DX009 (ip), vehicle: water 111 % of control | dose: 50.0 mg/kg/injection, schedule: Q01DX009 (ip), vehicle: water 108 % of control | dose: 100.0 mg/kg/injection, schedule: Q01DX009 (ip), vehicle: water 104 % of control | dose: 200.0 mg/kg/injection, schedule: Q01DX009 (ip), vehicle: water 110 % of control

Cc1cccc(-n2c(C)nc3[nH]cc(C)c3c2=N)c1
inactive: [5] 99 % of control | [6] 105 % of control

O=C(Nc1cc(-c2ccccc2)nn1-c1ccccc1)c1ccc(Cl)cc1
inactive: [1] 99 % of control and 94 % of control | [8] 93 % of control | [9] 87 % of control and 94 % of control

O=C1N(Cl)C2(c3ccccc3)N(Cl)C(=O)N(Cl)C2(c2ccccc2)N1Cl (stereo not given)
inactive: dose: 25.0 mg/kg/injection, schedule: Q04DX003 (ip), vehicle: Klucel (hydroxypropylcellulose) (HPC) 103 % of control | dose: 50.0 mg/kg/injection, schedule: Q04DX003 (ip), vehicle: Klucel (hydroxypropylcellulose) (HPC) 110 % of control

CC(C)(OC(=O)N=[N+]=[N-])c1ccc(N=Nc2ccccc2)cc1
inactive: dose: 50.0 mg/kg/injection, schedule: Q01DX009 (ip), vehicle: saline + alcohol 94 % of control | dose: 100.0 mg/kg/injection, schedule: Q01DX009 (ip), vehicle: saline + alcohol 98 % of control | dose: 200.0 mg/kg/injection, schedule: Q01DX009 (ip), vehicle: saline + alcohol 87 % of control

CC/C(C)=N/NC(=S)NC
inactive: dose: 6.25 mg/kg/injection, schedule: Q01DX009 (ip), vehicle: saline 98 % of control | dose: 12.5 mg/kg/injection, schedule: Q01DX009 (ip), vehicle: saline 98 % of control | dose: 25.0 mg/kg/injection, schedule: Q01DX009 (ip), vehicle: saline 101 % of control

CCCCCCOCN(COCCCCCC)c1ccc(Cl)cc1
inactive: [10] 102 % of control | [11] 109 % of control | [12] 118 % of control

CCOC(=O)/C(N)=N/N=Nc1ccc([N+](=O)[O-])cc1
inactive: dose: 50.0 mg/kg/injection, schedule: Q01DX009 (ip), vehicle: saline 103 % of control | dose: 100.0 mg/kg/injection, schedule: Q01DX009 (ip), vehicle: saline 103 % of control

Brc1cccc2[s+]snc12
inactive: dose: 50.0 mg/kg/injection, schedule: Q01DX005 (ip), vehicle: saline with Tween-80 101 % of control | dose: 100.0 mg/kg/injection, schedule: Q01DX005 (ip), vehicle: saline with Tween-80 105 % of control | dose: 200.0 mg/kg/injection, schedule: Q01DX005 (ip), vehicle: saline with Tween-80 97 % of control

CC(C)NCC(O)c1ccc(O)c2ncccc12 (stereo not given)
inactive: dose: 50.0 mg/kg/injection, schedule: Q01DX005 (ip), vehicle: saline 100 % of control | dose: 100.0 mg/kg/injection, schedule: Q01DX005 (ip), vehicle: saline 100 % of control | dose: 200.0 mg/kg/injection, schedule: Q01DX005 (ip), vehicle: saline 101 % of control

CC(CN)OCc1ccccc1 (stereo not given)
inactive: dose: 12.5 mg/kg/injection, schedule: Q04DX003 (ip), vehicle: saline 95 % of control | dose: 25.0 mg/kg/injection, schedule: Q04DX003 (ip), vehicle: saline 100 % of control | dose: 50.0 mg/kg/injection, schedule: Q04DX003 (ip), vehicle: saline 100 % of control

COc1cccc2c1C(=O)c1c(O)c3c(c(O)c1C2=O)CC(O)(C(C)O)CC3 (stereo not given)
inactive: dose: 1.0 mg/kg/injection, schedule: Q01DX009 (ip), vehicle: Klucel (hydroxypropylcellulose) (HPC) 102 % of control | dose: 2.0 mg/kg/injection, schedule: Q01DX009 (ip), vehicle: Klucel (hydroxypropylcellulose) (HPC) 99 % of control | dose: 4.0 mg/kg/injection, schedule: Q01DX009 (ip), vehicle: Klucel (hydroxypropylcellulose) (HPC) 95 % of control | dose: 8.0 mg/kg/injection, schedule: Q01DX009 (ip), vehicle: Klucel (hydroxypropylcellulose) (HPC) 92 % of control

COc1cccc(/C=N/NC(=O)c2c(-c3ccccc3)noc2C)c1O
inactive: [10] 99 % of control | [11] 100 % of control | [12] 110 % of control

CCNc1ccc(/C=C2\C=Cc3ccccc32)cc1
inactive: dose: 25.0 mg/kg/injection, schedule: Q01DX009 (ip), vehicle: Klucel (hydroxypropylcellulose) (HPC) 110 % of control

CCOC(=O)C1(C#N)C(c2ccccc2)C(OC)(OC)C1(OC)OC (stereo not given)
inactive: [2] 100 % of control | [3] 102 % of control | [4] 99 % of control
